Source: PubChem BioAssay AID2060912 (Molecular Pharmacology Branch, DTP, NCI, 2025)
pIC50: −log10 of the molar value.

System: HUVEC/MSC spheroids viability
Test: Human HUVEC/MSC cell line growth inhibition [KRAS2];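 as to viability, T/C: percent of DMSO vehicle control luminescence so 100% = untreated viability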
Conditions: for pIC50: curve of first compound; for viability, T/C: stronger effect = lower value
How it was run: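 HUVEC + hMSC stromal spheroids only, no malignant cells; 37 °C, 5% CO2. Drugs singly and in pairs, half-log series down from clinical Cmax (max 10 microM if Cmax undetermined).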

## CN(C)C/C=C/C(=O)Nc1cc2c(Nc3ccc(F)c(Cl)c3)ncnc2cc1O[C@H]1CCOC1 + C=CC(=O)N1CCN(c2nc(OCC3CCCN3C)nc3c2CCN(c2cccc4cccc(C)c24)C3)CC1CC#N
Second compound 0.00949 µM
  pIC50: < 7.00
Second compound 0.03 µM
  pIC50: < 7.00
Second compound 0.0949 µM
  pIC50: < 7.00
Second compound 0.3 µM
  pIC50: < 7.00
Second compound 0.949 µM
  pIC50: < 7.00
Second compound 3 µM
  pIC50: < 7.00
Second compound 0.00949 µM, first compound 0.000316 µM
  viability, T/C: 79.2%
Second compound 0.00949 µM, first compound 0.001 µM
  viability, T/C: 95.1%
Second compound 0.00949 µM, first compound 0.00316 µM
  viability, T/C: 88.5%
Second compound 0.00949 µM, first compound 0.01 µM
  viability, T/C: 82.1%
Second compound 0.00949 µM, first compound 0.0316 µM
  viability, T/C: 67.7%
Second compound 0.00949 µM, first compound 0.1 µM
  viability, T/C: 74.4%
Second compound 0.03 µM, first compound 0.000316 µM
  viability, T/C: 92.5%
Second compound 0.03 µM, first compound 0.001 µM
  viability, T/C: 92.5%
Second compound 0.03 µM, first compound 0.00316 µM
  viability, T/C: 90.8%
Second compound 0.03 µM, first compound 0.01 µM
  viability, T/C: 78.8%
Second compound 0.03 µM, first compound 0.0316 µM
  viability, T/C: 88.4%
Second compound 0.03 µM, first compound 0.1 µM
  viability, T/C: 99.2%
Second compound 0.0949 µM, first compound 0.000316 µM
  viability, T/C: 85.7%
Second compound 0.0949 µM, first compound 0.001 µM
  viability, T/C: 84.9%
Second compound 0.0949 µM, first compound 0.00316 µM
  viability, T/C: 82.3%
Second compound 0.0949 µM, first compound 0.01 µM
  viability, T/C: 79.8%
Second compound 0.0949 µM, first compound 0.0316 µM
  viability, T/C: 82.9%
Second compound 0.0949 µM, first compound 0.1 µM
  viability, T/C: 95.2%
Second compound 0.3 µM, first compound 0.000316 µM
  viability, T/C: 82.6%
Second compound 0.3 µM, first compound 0.001 µM
  viability, T/C: 84.5%
Second compound 0.3 µM, first compound 0.00316 µM
  viability, T/C: 76.1%
Second compound 0.3 µM, first compound 0.01 µM
  viability, T/C: 73.4%
Second compound 0.3 µM, first compound 0.0316 µM
  viability, T/C: 80.4%
Second compound 0.3 µM, first compound 0.1 µM
  viability, T/C: 63%
Second compound 0.949 µM, first compound 0.000316 µM
  viability, T/C: 63.9%
Second compound 0.949 µM, first compound 0.001 µM
  viability, T/C: 69.8%
Second compound 0.949 µM, first compound 0.00316 µM
  viability, T/C: 72.3%
Second compound 0.949 µM, first compound 0.01 µM
  viability, T/C: 80%
Second compound 0.949 µM, first compound 0.0316 µM
  viability, T/C: 72.5%
Second compound 0.949 µM, first compound 0.1 µM
  viability, T/C: 73%
Second compound 3 µM, first compound 0.000316 µM
  viability, T/C: 82.1%
Second compound 3 µM, first compound 0.001 µM
  viability, T/C: 90.3%
Second compound 3 µM, first compound 0.00316 µM
  viability, T/C: 82%
Second compound 3 µM, first compound 0.01 µM
  viability, T/C: 73.8%
Second compound 3 µM, first compound 0.0316 µM
  viability, T/C: 79%
Second compound 3 µM, first compound 0.1 µM
  viability, T/C: 93.7%
